Test system: dinitrofluorobenzene-induced ear edema
Test: Suppressive action on dinitrofluorobenzene-induced ear edema reaction in mouse
Format: in vivo, BALB/c mice (printed BALE/c)
Conditions: topical, test compound 1% (w/v) in acetone applied to front and back of auricle 1 hr before and 3 hr after induction, auricle thickness 24 hr after induction, female mice, read-out: ear edema suppressive rate (%)
Protocol: 5-Week to 6-week old BALE/c mice (female, supplied by CHARLES RIVER LABORATORIES JAPAN, INC) were purchased and, after quarantine and habituation, those showing satisfactory body weight increase and free of abnormal appearance were used to start the test from 7 weeks of age. The animals were housed and bred in plastic cages (6 mice per cage) in a breeding chamber set at room temperature 19-25° C., humidity 30-70%, 12 hr illumination per day (7 a.m.-7 p.m.), with free access to a commercially available solid feed and water.
One day before the test, the abdomen was shaved, and a solution of dinitrofluorobenzene (manufactured by Nacalai Tesque) in acetone (manufactured by Wako Pure Chemical Industries, Ltd.) {concentration 0.5% [weight (w)/volume (v) %]} was applied to the shaved part of BALE/c mice by 100 μL for sensitization. On day 5 after sensitization, a dinitrofluorobenzene-acetone solution [concentration 0.2% (w/v %)] was applied to the front and the back of the auricle by 10 μL each (total 20 μL) to induce reaction. A test compound dissolved in acetone to the concentration of 1% (w/v %) was applied to the front and the back of the auricle 1 hr before and 3 hr after the induction of reaction each by 10 μL or 40 μL (total 20 μL or 80 μL). After the application, the applied part was air-dried by a dryer.
A group administered with the test compound by coating was taken as a test compound administration group, and a group administered with acetone (solvent) by coating instead of the test compound was taken as a solvent administration group. In addition, a group free of sensitization and induction of reaction and administered with acetone by coating instead of the test compound was taken as a normal group. The thickness of the auricle was measured immediately before induction of reaction and 24 hr after the induction with a dial thickness gauge (manufactured by OZAKI MFG. CO., LTD., G-1A), and the difference between them was taken as ear edema. The ear edema suppressive rate (%) was calculated according to the following formula.

CS(=O)(=O)NC(=O)c1cnn2c(NCc3ccccc3)c(C(=O)N3CCC(c4ccccc4)CC3)cnc12 [a-1, N-[7-Benzylamino-6-(4-phenylpiperidine-1-carbonyl)pyrazolo[1,5-a]pyrimidine-3-carbonyl]methanesulfonamide]
inhibition in vivo at 1 %: 20%

CCS(=O)(=O)NC(=O)c1cnn2c(Nc3ccc(F)cc3C)c(C(=O)N3CCC(c4ccccc4)CC3)cnc12 [a-57, N-[7-(4-Fluoro-2-methylphenylamino)-6-(4-phenylpiperidine-1-carbonyl)pyrazolo[1,5-a]pyrimidine-3-carbonyl]ethanesulfonamide]
inhibition in vivo at 1 %: 35%

CCS(=O)(=O)NC(=O)c1cnn2c(Nc3cc(C)ccc3F)c(C(=O)N3CCC(c4ccccc4)CC3)cnc12 [a-59, N-[7-(2-Fluoro-5-methylphenylamino)-6-(4-phenylpiperidine-1-carbonyl)pyrazolo[1,5-a]pyrimidine-3-carbonyl]ethanesulfonamide]
inhibition in vivo at 1 %: 6%

CCS(=O)(=O)NC(=O)c1cnn2c(Nc3cc(C)ccc3F)c(C(=O)N3CCC(c4ccc(F)cc4)CC3)cnc12 [a-81, N-{7-(2-Fluoro-5-methylphenylamino)-6-[4-(4-fluorophenyl)piperidine-1-carbonyl]pyrazolo[1,5-a]pyrimidine-3-carbonyl}ethanesulfonamide]
inhibition in vivo at 1 %: 25%

CCS(=O)(=O)NC(=O)c1cnn2c(Nc3ccc(F)cc3C)c(C(=O)N3CCC(c4ccc(F)cc4)CC3)cnc12 [a-84, N-{7-(4-Fluoro-2-methylphenylamino)-6-[4-(4-fluorophenyl)piperidine-1-carbonyl]pyrazolo[1,5-a]pyrimidine-3-carbonyl}ethanesulfonamide]
inhibition in vivo at 1 %: 25%

CS(=O)(=O)NC(=O)c1cnn2c(NCc3ccccc3)c(C(=O)N3CCC(F)(c4ccccc4)CC3)cnc12 [a-96, N-[7-Benzylamino-6-(4-fluoro-4-phenylpiperidine-1-carbonyl)pyrazolo[1,5-a]pyrimidine-3-carbonyl]methanesulfonamide]
inhibition in vivo at 1 %: 10%

O=C(NS(=O)(=O)C1CC1)c1cnn2c(NCc3ccccc3)c(C(=O)N3CCC4(CC3)COc3ccccc34)cnc12 [a-126, N-[7-Benzylamino-6-(2H-spiro[benzofuran-3,4′-piperidine]-1′-ylcarbonyl)pyrazolo[1,5-a]pyrimidine-3-carbonyl]cyclopropanesulfonamide]
inhibition in vivo at 1 %: 10%

CCS(=O)(=O)NC(=O)c1cnn2c(Nc3cc(C)ccc3C)c(C(=O)N3CCC4(CC3)COc3cc(F)ccc34)cnc12 [a-137, N-[7-(2,5-Dimethylphenylamino)-6-(6-fluoro-2H-spiro[benzofuran-3,4′-piperidine]-1′-ylcarbonyl)pyrazolo[1,5-a]pyrimidine-3-carbonyl]ethanesulfonamide]
inhibition in vivo at 1 %: 5%
